pKi: −log10 of the molar value.
What was measured:
Adenosine receptor A1 = target: T1, Adenosine receptor A1 (Homo sapiens, UniProt P30542); experiment: Adenosine Receptor Binding Assay
T1 sequence (P30542 whole entry): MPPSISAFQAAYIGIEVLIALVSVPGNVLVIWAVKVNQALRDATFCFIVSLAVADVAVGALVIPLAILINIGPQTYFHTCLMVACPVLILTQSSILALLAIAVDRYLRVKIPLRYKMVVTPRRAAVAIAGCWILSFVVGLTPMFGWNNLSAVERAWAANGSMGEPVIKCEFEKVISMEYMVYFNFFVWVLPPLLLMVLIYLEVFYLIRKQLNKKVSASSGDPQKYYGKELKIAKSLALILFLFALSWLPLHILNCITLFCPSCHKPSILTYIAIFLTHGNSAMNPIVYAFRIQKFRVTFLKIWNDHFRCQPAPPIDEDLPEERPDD
Experimental: (§1) Inhibition binding assays were performed using 0.2 µg of membranes prepared from HEK293 cells infected with BacMam human adenosine A2A receptor or 1.4 µg of membranes prepared from HEK293 cells infected with BacMam human adenosine A1 receptor. Membranes were incubated in 50 mM Tris-HCl (HEK293-hA2A; pH 7.4) or 50 mM Tris-HCl, 100 mM NaCl, 10 mM MgCl2 (CHO-hA1; pH 7.4) in the presence of varying concentrations of test compound and 1 nM [3H]ZM241385 (HEK293-hA2A) or [3H]DPCPX (CHO-hA1) at 25° C. for 1 h. The assay was then terminated by rapid filtration onto GF/B grade Unifilter plates using a TomTec cell harvester, followed by 5 × 0.5 ml washes with ddH2O. […] Bound radioactivity was determined by liquid scintillation counting and inhibition curves were analysed using a four-parameter logistic equation. IC50 values were converted to Ki values with the Cheng-Prusoff equation using a KD value derived from saturation binding studies.

Adenosine receptor A2a = Adenosine receptor A2a (Homo sapiens, UniProt P29274); experiment: Adenosine Receptor Binding Assay
Experimental: as §1

Chain of Adenosine receptor A2a (P29274 whole entry): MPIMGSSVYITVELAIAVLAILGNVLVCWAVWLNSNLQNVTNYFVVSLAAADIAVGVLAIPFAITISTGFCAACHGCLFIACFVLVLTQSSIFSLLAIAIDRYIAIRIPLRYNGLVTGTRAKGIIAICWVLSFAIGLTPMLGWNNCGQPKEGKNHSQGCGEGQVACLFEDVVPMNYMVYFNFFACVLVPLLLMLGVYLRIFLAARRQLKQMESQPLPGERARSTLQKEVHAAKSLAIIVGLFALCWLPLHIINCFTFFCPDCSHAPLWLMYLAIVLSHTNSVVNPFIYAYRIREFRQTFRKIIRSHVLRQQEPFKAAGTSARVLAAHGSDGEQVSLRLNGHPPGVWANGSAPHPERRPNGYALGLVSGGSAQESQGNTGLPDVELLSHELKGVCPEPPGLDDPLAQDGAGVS

Cc1cc(-c2c(-c3ccccc3)nc(N)n3c(=O)n(Cc4ncc[nH]4)nc23)cc(C)n1 [US20230271964, Example 1-24]
pKi (Adenosine receptor A1): 7.60 | pKi (Adenosine receptor A2a): 9.20
